Source: patent publication US11214578B2, “Urea/carbamates FAAH MAGL or dual FAAH/MAGL inhibitors and uses thereof” (Northeastern University, priority 2014, dated 2022)
Read-outs that look alike come from different tables or passages of the source.

Key:
Assay type in all cases: biochemical
Human MAGL (hMAGL) = molecular target: T1, Human MAGL (hMAGL) (Homo sapiens, UniProt Q99685); assay: Fluorescent assay protocol for hMAGL (AHMMCE substrate)
T1 construct: hexahistidine; made in house; host or cells: E. coli
T1 sequence (Q99685 1-303): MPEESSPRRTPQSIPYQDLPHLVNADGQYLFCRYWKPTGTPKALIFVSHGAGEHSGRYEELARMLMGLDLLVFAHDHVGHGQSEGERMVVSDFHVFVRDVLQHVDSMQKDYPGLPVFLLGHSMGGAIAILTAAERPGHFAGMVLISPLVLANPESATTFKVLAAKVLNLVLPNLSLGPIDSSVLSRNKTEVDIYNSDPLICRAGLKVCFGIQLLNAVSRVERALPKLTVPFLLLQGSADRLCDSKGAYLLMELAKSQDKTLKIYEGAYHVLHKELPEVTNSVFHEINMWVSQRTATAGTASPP
Procedure, shortened: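 Hydrolysis of AHMMCE by human MAGL was monitored at 25°C for 120 min, with fluorescence at 360/460 nm recorded every 15 min and converted to 4-methylcoumarin using external standards. IC50 values were derived from triplicate wells at each inhibitor concentration.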

Rat MAGL (rMAGL) = molecular target: T2, Rat MAGL (rMAGL) (Rattus norvegicus, UniProt Q8R431); assay: Fluorescent assay protocol for rMAGL
T2 construct: made in house; host or cells: E. coli
T2 sequence (Q8R431 1-303): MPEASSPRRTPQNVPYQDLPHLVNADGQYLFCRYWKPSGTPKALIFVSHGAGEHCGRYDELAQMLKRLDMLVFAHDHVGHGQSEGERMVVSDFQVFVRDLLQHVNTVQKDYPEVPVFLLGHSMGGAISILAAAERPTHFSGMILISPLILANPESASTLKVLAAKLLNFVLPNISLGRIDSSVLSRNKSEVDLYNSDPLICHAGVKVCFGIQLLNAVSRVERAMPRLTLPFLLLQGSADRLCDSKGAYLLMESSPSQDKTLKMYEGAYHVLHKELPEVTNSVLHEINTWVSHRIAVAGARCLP
Procedure, shortened: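 Rat MAGL run as for the human enzyme: AHMMCE substrate hydrolysis to fluorescent coumarin followed at 25° C. for 120 min, read every 15 min at 360/460 nm.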

ΔTM rat FAAH = molecular target: T3, ΔTM rat FAAH (Rattus norvegicus, UniProt P97612); assay: Fluorescent assay protocol for ΔTM rat FAAH (AAMCA substrate); details: 15 min preincubation, read-out: IC50 rFAAH
T3 construct: Preparation of Transmembrane Domain-Deleted Rat FAAH (ΔTM rFAAH); made in house; host or cells: E. coli
T3 sequence (P97612 30-579 limits assumed): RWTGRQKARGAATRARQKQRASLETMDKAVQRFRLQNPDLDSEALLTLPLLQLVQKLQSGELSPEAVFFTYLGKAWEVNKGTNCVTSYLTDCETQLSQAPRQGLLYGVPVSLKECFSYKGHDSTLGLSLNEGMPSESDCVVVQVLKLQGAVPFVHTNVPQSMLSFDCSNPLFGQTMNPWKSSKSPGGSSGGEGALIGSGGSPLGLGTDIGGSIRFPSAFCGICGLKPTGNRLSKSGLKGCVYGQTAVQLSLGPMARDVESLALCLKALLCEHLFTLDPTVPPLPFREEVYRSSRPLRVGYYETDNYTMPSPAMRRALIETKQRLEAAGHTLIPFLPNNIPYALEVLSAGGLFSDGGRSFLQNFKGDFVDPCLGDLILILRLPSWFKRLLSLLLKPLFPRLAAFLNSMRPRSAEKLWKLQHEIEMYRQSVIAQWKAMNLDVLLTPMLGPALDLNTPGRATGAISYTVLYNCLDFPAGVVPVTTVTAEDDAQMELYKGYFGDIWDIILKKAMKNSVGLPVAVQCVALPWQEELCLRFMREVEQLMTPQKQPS
Procedure, shortened: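 ΔTM rat FAAH (15 μg) was pre-incubated 15 min at 25° C with compound (screening at 1, 10 and 100 μM), then reacted with the fluorigenic substrate AAMCA. Percent inhibition came from fluorescence at 3 h (linear kinetics) relative to no-inhibitor controls, in triplicate.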

Human FAAH (MBPΔTMhFAAH) = molecular target: T4, Human FAAH (MBPΔTMhFAAH) (Homo sapiens, UniProt O00519); assay: Fluorescent assay protocol for hFAAH; details: human FAAH (MBP fusion, ΔTM), procedure as for rFAAH
T4 construct: made in house; host or cells: E. coli (pMALcE4 vector)
T4 sequence (O00519 30-579 limits assumed): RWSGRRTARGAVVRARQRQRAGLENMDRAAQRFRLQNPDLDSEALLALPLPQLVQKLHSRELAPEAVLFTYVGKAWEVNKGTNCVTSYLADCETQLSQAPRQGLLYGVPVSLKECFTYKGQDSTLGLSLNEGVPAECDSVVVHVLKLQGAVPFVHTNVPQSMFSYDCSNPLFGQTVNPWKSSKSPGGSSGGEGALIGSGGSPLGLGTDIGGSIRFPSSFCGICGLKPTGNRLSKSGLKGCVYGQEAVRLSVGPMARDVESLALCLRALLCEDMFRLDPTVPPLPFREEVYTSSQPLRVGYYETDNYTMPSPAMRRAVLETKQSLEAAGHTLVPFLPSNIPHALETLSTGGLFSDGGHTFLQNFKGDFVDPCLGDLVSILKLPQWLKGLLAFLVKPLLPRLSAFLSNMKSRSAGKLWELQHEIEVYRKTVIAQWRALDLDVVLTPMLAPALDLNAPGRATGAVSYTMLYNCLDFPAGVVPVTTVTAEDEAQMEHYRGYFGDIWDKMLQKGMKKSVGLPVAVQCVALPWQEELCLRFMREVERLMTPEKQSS
Procedure, shortened: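 MBP-fused ΔTM human FAAH from E. coli, pre-incubated 15 min at 25 °C with compound in 50 mM HEPES, 1 mM EDTA, 0.1% BSA, pH 7.4 (DMSO below 8%). Substrate AAMCA 20 μM (2×Km); fluorescence (ex 360/em 460) at 3 h gave % inhibition vs uninhibited control, triplicate, IC50 fitted.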

[1] = recombinant human MAGL, AHMMCE substrate, 15 min preincubation, read-out: IC50 hMAGL
[2] = recombinant rat MAGL, procedure as for hMAGL, read-out: IC50 rMAGL

Cc1ccc(S(=O)(=O)N2CCN(C(=O)Oc3ccc(Br)cc3)CC2)cc1 [Example 64, 4-bromophenyl 4-tosylpiperazine-1-carboxylate]
IC50 (Human MAGL (hMAGL); [1]): 0.01 to 0.1 µM
IC50 (Rat MAGL (rMAGL); [2]): 0.01 to 0.1 µM
IC50 (ΔTM rat FAAH): > 1 µM
IC50 (Human FAAH (MBPΔTMhFAAH)): > 1 µM

Cc1ccc(S(=O)(=O)N2CCN(C(=O)Oc3c(F)cccc3F)CC2)cc1 [Example 65, 2,6-difluorophenyl 4-tosylpiperazine-1-carboxylate]
IC50 (Human MAGL (hMAGL); [1]): 0.11 to 1 µM
IC50 (Rat MAGL (rMAGL); [2]): 0.11 to 1 µM
IC50 (ΔTM rat FAAH): > 1 µM
IC50 (Human FAAH (MBPΔTMhFAAH)): > 1 µM

Cc1ccc(S(=O)(=O)N2CCN(C(=O)Oc3ccc(-c4ccc(F)cc4)cc3O)CC2)cc1 [Example 66, 4′-fluoro-3-hydroxy-[1,1′-biphenyl]-4-yl 4-tosylpiperazine-1-carboxylate]
IC50 (Human MAGL (hMAGL); [1]): 0.01 to 0.1 µM
IC50 (Rat MAGL (rMAGL); [2]): 0.01 to 0.1 µM
IC50 (ΔTM rat FAAH): > 1 µM
IC50 (Human FAAH (MBPΔTMhFAAH)): > 1 µM

O=C(Nc1cccc(N2CCS(=O)(=O)CC2)c1)N1CCN(c2ccccc2)CC1 [Example 67, N-(3-(1,1-dioxidothiomorpholino)phenyl)-4-phenylpiperazine-1-carboxamide]
IC50 (Human MAGL (hMAGL); [1]): 0.01 to 0.1 µM
IC50 (Rat MAGL (rMAGL); [2]): 0.01 to 0.1 µM
IC50 (ΔTM rat FAAH): > 1 µM
IC50 (Human FAAH (MBPΔTMhFAAH)): > 1 µM

O=C(Nc1cccc(N2CCS(=O)(=O)CC2)c1)N1CCC(c2ccccc2)CC1 [Example 68, N-(3-(1,1-dioxidothiomorpholino)phenyl)-4-phenylpiperidine-1-carboxamide]
IC50 (Human MAGL (hMAGL); [1]): 0.11 to 1 µM
IC50 (Rat MAGL (rMAGL); [2]): 0.11 to 1 µM
IC50 (ΔTM rat FAAH): > 1 µM
IC50 (Human FAAH (MBPΔTMhFAAH)): > 1 µM

O=C(Oc1cccc(N2CCS(=O)(=O)CC2)c1)N1CCN(c2ccccc2)CC1 [Example 69, 3-(1,1-dioxidothiomorpholino)phenyl 4-phenylpiperazine-1-carboxylate]
IC50 (Human MAGL (hMAGL); [1]): 0.01 to 0.1 µM
IC50 (Rat MAGL (rMAGL); [2]): 0.01 to 0.1 µM
IC50 (ΔTM rat FAAH): 0.11 to 1 µM
IC50 (Human FAAH (MBPΔTMhFAAH)): 0.11 to 1 µM

O=C(Oc1cccc(N2CCS(=O)(=O)CC2)c1)N1CCC(c2ccccc2)CC1 [Example 70, 3-(1,1-Dioxothiomorpholin-4-yl)phenyl 4-phenylpiperidine-1-carboxylate]
IC50 (Human MAGL (hMAGL); [1]): 0.11 to 1 µM
IC50 (Rat MAGL (rMAGL); [2]): 0.11 to 1 µM
IC50 (ΔTM rat FAAH): 0.11 to 1 µM
IC50 (Human FAAH (MBPΔTMhFAAH)): 0.11 to 1 µM

O=C(Oc1cccc(N2CCS(=O)(=O)CC2)c1)N1CCN(Cc2cccc(Oc3ccccc3)c2)CC1 [Example 71, 3-(1,1-dioxidothiomorpholino)phenyl 4-(3-phenoxybenzyl)piperazine-1-carboxylate]
IC50 (Human MAGL (hMAGL); [1]): 0.01 to 0.1 µM
IC50 (Rat MAGL (rMAGL); [2]): 0.01 to 0.1 µM
IC50 (ΔTM rat FAAH): 0.11 to 1 µM
IC50 (Human FAAH (MBPΔTMhFAAH)): 0.11 to 1 µM

O=C(Oc1cccc(N2CCS(=O)(=O)CC2)c1)N1CCN(Cc2ccc3ccccc3n2)CC1 [Example 72, 3-(1,1-dioxidothiomorpholino)phenyl 4-(quinolin-2-ylmethyl)piperazine-1-carboxylate]
IC50 (Human MAGL (hMAGL); [1]): 0.11 to 1 µM
IC50 (Rat MAGL (rMAGL); [2]): 0.11 to 1 µM
IC50 (ΔTM rat FAAH): 0.11 to 1 µM
IC50 (Human FAAH (MBPΔTMhFAAH)): 0.11 to 1 µM

CC1CN(c2ccccc2)CCN1C(=O)Oc1cccc(N2CCS(=O)(=O)CC2)c1 (stereo not drawn) [Example 73, 3-(1,1-dioxidothiomorpholino)phenyl 2-methyl-4-phenylpiperazine-1-carboxylate]
IC50 (Human MAGL (hMAGL); [1]): 0.01 to 0.1 µM
IC50 (Rat MAGL (rMAGL); [2]): 0.01 to 0.1 µM
IC50 (ΔTM rat FAAH): > 1 µM
IC50 (Human FAAH (MBPΔTMhFAAH)): > 1 µM

N#Cc1cccc(OC(=O)N2CC(OCc3ccc(Cl)cc3)C2)c1 [Example 74, 3-Cyanophenyl 3-(4-chlorobenzyloxy)azetidine-1-carboxylate]
IC50 (Human MAGL (hMAGL); [1]): 0.11 to 1 µM
IC50 (Rat MAGL (rMAGL); [2]): > 1 µM
IC50 (ΔTM rat FAAH): 0.01 to 0.1 µM
IC50 (Human FAAH (MBPΔTMhFAAH)): 0.01 to 0.1 µM

O=C(Oc1cccc(C(F)(F)F)c1)N1CC(OCc2ccc(Cl)cc2)C1 [Example 75, 3-(Trifluoromethyl)phenyl 3-(4-chlorobenzyloxy)azetidine-1-carboxylate]
IC50 (Human MAGL (hMAGL); [1]): 0.11 to 1 µM
IC50 (Rat MAGL (rMAGL); [2]): > 1 µM
IC50 (ΔTM rat FAAH): 0.01 to 0.1 µM
IC50 (Human FAAH (MBPΔTMhFAAH)): 0.01 to 0.1 µM

O=C(Oc1cccc(Br)c1)N1CC(OCc2ccc(Cl)cc2)C1 [Example 76, 3-Bromophenyl 3-(4-chlorobenzyloxy)azetidine-1-carboxylate]
IC50 (Human MAGL (hMAGL); [1]): 0.11 to 1 µM
IC50 (Rat MAGL (rMAGL); [2]): 0.11 to 1 µM
IC50 (ΔTM rat FAAH): 0.01 to 0.1 µM
IC50 (Human FAAH (MBPΔTMhFAAH)): 0.01 to 0.1 µM

NC(=O)c1cccc(OC(=O)N2CC(OCc3ccc(Cl)cc3)C2)c1 [Example 77, 3-Carbamoylphenyl 3-(4-chlorobenzyloxy)azetidine-1-carboxylate]
IC50 (Human MAGL (hMAGL); [1]): 0.11 to 1 µM
IC50 (Rat MAGL (rMAGL); [2]): 0.11 to 1 µM
IC50 (ΔTM rat FAAH): 0.01 to 0.1 µM
IC50 (Human FAAH (MBPΔTMhFAAH)): 0.01 to 0.1 µM

COc1cccc(OC(=O)N2CC(OCc3ccc(Br)cc3)C2)c1 [Example 78, 3-Methoxyphenyl 3-(4-Bromobenzyloxy)azetidine-1-carboxylate]
IC50 (Human MAGL (hMAGL); [1]): > 1 µM
IC50 (Rat MAGL (rMAGL); [2]): > 1 µM
IC50 (ΔTM rat FAAH): 0.01 to 0.1 µM
IC50 (Human FAAH (MBPΔTMhFAAH)): 0.01 to 0.1 µM

O=C(Oc1ccc(Cl)cc1Cl)N1CC(OCc2ccc(Cl)cc2)C1 [Example 79, 2,4-Dichlorophenyl 3-(4-chlorobenzyloxy)azetidine-1-carboxylate]
IC50 (Human MAGL (hMAGL)): 0.11 to 1 µM
IC50 (Rat MAGL (rMAGL)): 0.11 to 1 µM
IC50 (ΔTM rat FAAH): 0.01 to 0.1 µM
IC50 (Human FAAH (MBPΔTMhFAAH)): 0.01 to 0.1 µM

O=C(Oc1cccc(-c2cccnc2)c1)N1CC(OCc2ccc(Cl)cc2)C1 [Example 80, 3-(Pyridin-3-yl)phenyl 3-(4-chlorobenzyloxy)azetidine-1-carboxylate]
IC50 (Human MAGL (hMAGL); [1]): > 1 µM
IC50 (Rat MAGL (rMAGL); [2]): > 1 µM
IC50 (ΔTM rat FAAH): 0.01 to 0.1 µM
IC50 (Human FAAH (MBPΔTMhFAAH)): 0.01 to 0.1 µM

O=C(Nc1ccccc1)N1CC(OCc2ccc(Cl)cc2)C1 [Example 81, 3-(4-Chlorobenzyloxy)-N-phenylazetidine-1-carboxamide]
IC50 (Human MAGL (hMAGL); [1]): > 1 µM
IC50 (Rat MAGL (rMAGL); [2]): > 1 µM
IC50 (ΔTM rat FAAH): 0.11 to 1 µM
IC50 (Human FAAH (MBPΔTMhFAAH)): 0.11 to 1 µM
